{
  "source": "ChEMBL document CHEMBL1126732",
  "about": "“Synthesis of and radioligand binding studies with a tritiated pinacidil analogue: receptor interactions of structurally different classes of potassium channel openers and blockers” (J Med Chem, 1993)",
  "note": "Structures can show the parent of a compound that is named as a salt.",
  "data": [
    {"species": "Rattus norvegicus", "assay": "Vasorelaxant activity expressed as negative logarithm of the concentration causing a 50% inhibition of spontaneous myogenic activity in rat portal vein.", "type": "functional", "values": [
      {"smiles": "Nc1cc(N2CCCCC2)nc(N)[n+]1OS(=O)(=O)[O-]", "note": "[MINOXIDIL SULFATE]", "pD2": 7.14},
      {"smiles": "CC(N/C(=N\\C#N)Nc1ccncc1)C(C)(C)C", "note": "(stereo in doubt; 11) [PINACIDIL ANHYDROUS]", "pD2": 7.47},
      {"smiles": "CC1(C)Oc2ccc(C#N)cc2[C@@H](N2CCCC2=O)[C@@H]1O", "note": "[LEVCROMAKALIM]", "pD2": 7.89},
      {"smiles": "CCC(C)(C)/N=C(\\NC#N)Nc1cccnc1", "pD2": 8.75},
      {"smiles": "CC1=Nc2ccc(Cl)cc2S(=O)(=O)N1", "note": "[DIAZOXIDE]", "pD2": 5.5},
      {"smiles": "CC1(C)Oc2ccc(C#N)cc2C(N2CCCC2=O)C1O", "note": "(configuration not stated) [CROMAKALIM]", "pD2": 5.66},
      {"smiles": "CC1(C)Oc2ccc(C#N)cc2[C@H](OC2=CC(=O)CC2)[C@H]1O", "pD2": 5.26},
      {"smiles": "C[C@@H](N/C(=C\\[N+](=O)[O-])Nc1cccnc1)C(C)(C)C", "pD2": 6},
      {"smiles": "CC1(C)Oc2ccc(C#N)cc2[C@@H](OC2=CC(=O)CC2)[C@@H]1O", "pD2": 7.85},
      {"smiles": "CC(N/C(=N\\C#N)Nc1ccncc1)C(C)(C)C", "note": "(stereo in doubt; 12) [PINACIDIL ANHYDROUS]", "pD2": 6.11},
      {"smiles": "CC1(C)C=C(n2ccccc2=O)c2cc(C#N)ccc2O1", "note": "[BIMAKALIM]", "pD2": 8.2},
      {"smiles": "C[C@H](N/C(=C\\[N+](=O)[O-])Nc1cccnc1)C(C)(C)C", "pD2": 7.96}
    ]}
  ]
}
